The text below walks through data of publication PMC3898987 (Bioorganic & Medicinal Chemistry, 2013).

Broadly, the IC50 is the point on the concentration scale where inhibition reaches its midpoint. The low end stands for greater potency, the high end for weaker potency. Usually Kd stands for a measure of binding affinity in units of concentration.

Experiment [1] deals with T1, 5-HT3AB receptor, 5-HT3B subunit F130A (Homo sapiens, UniProt O95264+P46098, F123A).
T1 sequence (P46098 24-478): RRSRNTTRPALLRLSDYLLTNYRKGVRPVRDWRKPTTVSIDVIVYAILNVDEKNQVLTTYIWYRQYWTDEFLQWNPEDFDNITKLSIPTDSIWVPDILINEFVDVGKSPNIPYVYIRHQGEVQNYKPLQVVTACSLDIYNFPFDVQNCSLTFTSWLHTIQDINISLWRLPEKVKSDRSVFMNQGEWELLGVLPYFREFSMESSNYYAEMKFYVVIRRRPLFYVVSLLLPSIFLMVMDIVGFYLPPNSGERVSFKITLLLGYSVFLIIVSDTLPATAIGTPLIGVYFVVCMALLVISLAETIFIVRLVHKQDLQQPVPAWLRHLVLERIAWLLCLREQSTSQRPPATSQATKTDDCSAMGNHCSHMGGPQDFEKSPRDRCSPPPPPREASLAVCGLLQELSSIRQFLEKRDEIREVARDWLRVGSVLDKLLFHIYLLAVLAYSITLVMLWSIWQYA
T1 sequence (O95264 22-441 F123A): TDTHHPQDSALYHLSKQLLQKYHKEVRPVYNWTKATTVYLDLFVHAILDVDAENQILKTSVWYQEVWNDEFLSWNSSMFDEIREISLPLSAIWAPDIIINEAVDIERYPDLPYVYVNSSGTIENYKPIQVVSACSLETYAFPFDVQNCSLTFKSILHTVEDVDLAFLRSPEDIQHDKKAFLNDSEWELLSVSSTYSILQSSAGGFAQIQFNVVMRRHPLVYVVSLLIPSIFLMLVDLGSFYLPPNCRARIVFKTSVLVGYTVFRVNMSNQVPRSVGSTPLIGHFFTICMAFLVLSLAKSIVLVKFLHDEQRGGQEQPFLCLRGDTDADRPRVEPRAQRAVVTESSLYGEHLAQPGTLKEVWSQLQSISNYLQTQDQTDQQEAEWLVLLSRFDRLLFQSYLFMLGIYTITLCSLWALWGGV
As to the kind of experiment: FlexStation membrane potential dye functional assay, HEK293 cells. The note with it: 5-HT concentration-response, 5-HT3AB with 5-HT3B F130A.
Experimental: (§1) Human embryonic kidney (HEK) 293 cells were cultured on 90 mm tissue culture plates at 37 °C and 7% CO2 in a humidified atmosphere. They were grown in DMEM:F12 (Dulbecco’s Modified Eagle’s Medium/Nutrient Mix F12 (1:1)) with GlutaMAX I™ containing 10% fetal calf serum and passaged when confluent. […] For FlexStation assays, transfected cells were plated on 96-well plates and incubated 1–2 days before assay.
(§2) Fluorometric studies were undertaken using a FlexStation® (Molecular Devices, Sunnyvale, CA, USA) as previously described.[11]
(§3) Fluorescence was measured every 2 s for 200 s. […] Concentration–response and inhibition curves were obtained for each mutant, and the fluorescence values were normalized to the maximal response.

The target in experiment [2] is T2, 5-HT3AB receptor, 5-HT3B subunit Y143A (Homo sapiens, UniProt O95264+P46098, Y136A).
T2 sequence (P46098 24-478): T1 sequence (P46098 24-478)
T2 sequence (O95264 22-441 Y136A): T1 sequence (O95264 22-441 F123A) with A102F, Y115A
As to the kind of experiment: cell-based.
Experimental: For FlexStation assays, transfected cells were plated on 96-well plates and incubated 1–2 days before assay.
as §2, §3

Experiment [3] addresses T3, 5-HT3A receptor F130A (Homo sapiens, UniProt P46098, F125A).
T3 sequence (P46098 24-478 F125A): T1 sequence (P46098 24-478) with F102A
As to the kind of experiment: radioligand saturation binding, transfected HEK293 membranes. Conditions: [3H]-palonosetron saturation, 5-HT3A F130A, 4 °C, 24 h.
Experimental: Human embryonic kidney (HEK) 293 cells were cultured on 90 mm tissue culture plates at 37 °C and 7% CO2 in a humidified atmosphere. They were grown in DMEM:F12 (Dulbecco’s Modified Eagle’s Medium/Nutrient Mix F12 (1:1)) with GlutaMAX I™ containing 10% fetal calf serum and passaged when confluent. For radioligand binding studies, cells in 90 mm dishes were transfected at 60–70% confluency using polyethyleneimine and incubated for 3–4 days before use. For FlexStation assays, transfected cells were plated on 96-well plates and incubated 1–2 days before assay. […]
Eight-point binding assays were performed to produce saturation binding curves. […] Radioactive counts were measured using a Beckman LS6000SC liquid scintillation counter (Fullerton, California, USA).
Data were analyzed by iterative curve fitting using GraphPad Prism v5 (San Diego, CA) according to the following equation: B=Bmax[L]^n/kdn+[L]^n where B is the amount of bound radioligand, Bmax is the maximum specific binding at equilibrium, [L] is the concentration of radioligand, Kd is the equilibrium dissociation constant of the radioligand, and n is the Hill coefficient.

Experiment [4] has as its target T1, 5-HT3AB receptor, 5-HT3B subunit F130A. The experiment in a line: cell-based.
Experimental: as §1, §2, §3
Experiment [5] deals with T4, 5-HT3AB receptor, 5-HT3B subunit E170A (Homo sapiens, UniProt P46098).
T4 construct: variant as stated: E170A
T4 sequence (P46098 24-478): T1 sequence (P46098 24-478)
T4 sequence (O95264 22-441 partner): T1 sequence (O95264 22-441 F123A) with A102F
The experiment in a line: FlexStation membrane potential dye functional assay, HEK293 cells. The format is cell-based.
Experimental: as §1
Mutagenesis reactions were performed using either the Kunkel method or the QuikChange kit (Agilent Technologies Inc., CA, USA) using human 5-HT3A or 5-HT3B receptor subunit cDNA (accession numbers: P46098 and O95264) in pcDNA3.1 (Invitrogen, Paisley, UK). Subunit numberings have been altered to the aligning residues in the mouse 5-HT3A subunit for ease of comparison with other studies.
as §2, §3

Where a chain is given by its changes, count along the chain named.

As to `NCCc1c[nH]c2ccc(O)cc12` [5-HT, serotonin], the “Hill Coefficient” value in experiment [1] amounted to 1.4 ± 0.2.
Turning to `O=C1c2cccc3c2[C@H](CCC3)CN1[C@@H]1CN2CCC1CC2` [Palonosetron], the IC50 in experiment [2] came out at 0.38 ± 0.05 nM; in experiment [4], 0.84 ± 0.11 nM; in experiment [5] it was 0.36 ± 0.11 nM. For the same compound, in experiment [3], the dissociation constant Kd was 0.67 ± 0.12 nM.
